Results from article PMC11423305, “Structure-Based Design of CBP/EP300 Degraders: When Cooperativity Overcomes Affinity” (JACS Au, 2024).

Biological target: T1, BRD4 (Homo sapiens, UniProt O60885)
T1 construct: Western blot masurement of BRD4 levels in LP1 cells treated for 16 h with; endogenous in cells; host or cells: LP1 and MM1S cells
Assay: Global proteomics / Western blot of BRD4 level
Format: cell-based
Settings: LP1 and MM1S cells, 16 h, 1 μM; verified by Western blot
Description: cooperativity factor (α) was defined as the ratio of the IC50 values in the absence and […]
For the ternary complex experiments, the final assay composition was: 0.1 % DMSO, 5 nM GST-CBP, 5 nM CRBN-Avi(biotin), 100 mM KF, 0.625 nM XL665-Streptavidin conjugate and 0.8 nM anti-GST mAb – Eu3+-cryptate. The maximal control contained 40 nM dCBP-1, the blank contained no PROTAC. Hook curves were generated by normalization to the maximal control.
LP1 cells were cultured in DMEM (Gibco, 41966-029) supplemented with 15 % FBS (Sigma, F9665); MM1S and LNCaP cells in RPMI 1640 ATCC modification (Gibco, […]
DMEM/F12 (Gibco, 11320074) supplemented with 1 % non-essential amino acids […]
Quantification of CBP/EP300 degradation by Western blotting
LP1 cells plated on 6 well plates were treated with the stated compounds at a final concentration of 0.1 % DMSO for the stated time. […] Protein concentrations were determined using the Pierce ™ BCA Protein Assay Kit (Thermo Scientific, 23227) and equal amounts were separated on 4-12 % ExpressPl us™ PAGE gels (GenScript, M41215). […]
SuperSignal™ West Pico PLUS Chemiluminescent Substrate (Thermo Scientific, 34580) and the Vilber Fusion-FX7 imager. Bands were quantified using ImageJ software and protein levels normalized to protein from DMSO treated cells run on the same membrane. […]

level of BRD4: not changed
Structure (SMILES): Cc1cc2c(NC(=O)c3cc(NC(=O)CCCCCCCCCCNc4cccc5c4C(=O)N(C4CCC(=O)NC4=O)C5=O)cc(-c4ccn(C)n4)c3)cccc2nn1 (stereo not shown) [dCE-2]
